According to ChEMBL document CHEMBL3885861, “Open TG-GATES”:

Organism: Rattus norvegicus
Experiment: Open TG-GATES - Regimen: Single
Assay type: toxicity, organism-based, Sprague-Dawley
Set-up: regimen Single, gender Male, age 6 weeks
Settings: in vivo, po, 200 mg/kg, route gavage, dose level High; for APTT / Bas / Eos / Fbg / Hb / Ht / Lym / MCH / MCHC / MCV / Mono / Neu / PT / Plat / RBC / Ret / WBC: tissue Blood; for KIDNEY_L / KIDNEY_R / KIDNEY_TOTAL: tissue Kidney; for LIVER: tissue Liver; for A/G / ALP / ALT / AST / BUN / CRE / Ca / Cl / DBIL / GLC / IP / K / LDH / Na / PL / RALB / TBIL / TC / TG / TP / gamma-GTP: tissue Plasma

CC(CN1c2ccccc2Sc2ccccc21)N(C)C (configuration not stated) [PROMETHAZINE]
TERMINAL_BW (3 h): 219.2 g
APTT (3 h): 23.5 s
Bas (3 h): 0%
Eos (3 h): 0.8%
Fbg (3 h): 315.2 mg/dL
Hb (3 h): 13.5 g/dL
Ht (3 h): 40.9%
Lym (3 h): 78.4%
MCH (3 h): 21 pg
MCHC (3 h): 32.9%
MCV (3 h): 63.9 fL
Mono (3 h): 3%
Neu (3 h): 17%
PT (3 h): 16.4 s
Plat (3 h): 126.9 x10_4/uL
RBC (3 h): 640.8 x10_4/ul
Ret (3 h): 7.8%
WBC (3 h): 66.9 x10_2/uL
KIDNEY_L (3 h): 0.9 g
KIDNEY_R (3 h): 1 g
KIDNEY_TOTAL (3 h): 1.9 g
LIVER (3 h): 9.7 g
A/G (3 h): 1.3
ALP (3 h): 1534.6 IU/L
ALT (3 h): 59 IU/L
AST (3 h): 90.2 IU/L
BUN (3 h): 11.8 mg/dL
CRE (3 h): 0.1 mg/dL
Ca (3 h): 10.8 mg/dL
Cl (3 h): 105.4 meq/L
DBIL (3 h): 0.036 mg/dL
GLC (3 h): 181 mg/dL
IP (3 h): 10.1 mg/dL
K (3 h): 4.3 meq/L
LDH (3 h): 211.8 IU/L
Na (3 h): 141.6 meq/L
PL (3 h): 135.4 mg/dL
RALB (3 h): 3.2 g/dL
TBIL (3 h): 0.024 mg/dL
TC (3 h): 77.2 mg/dL
TG (3 h): 47.4 mg/dL
TP (3 h): 5.6 g/dL
gamma-GTP (3 h): 1.2 IU/L
TERMINAL_BW (6 h): 215.1 g
APTT (6 h): 24 s
Bas (6 h): 0%
Eos (6 h): 0.4%
Fbg (6 h): 348.2 mg/dL
Hb (6 h): 13.5 g/dL
Ht (6 h): 40.8%
Lym (6 h): 72.4%
MCH (6 h): 20.7 pg
MCHC (6 h): 33.1%
MCV (6 h): 62.7 fL
Mono (6 h): 2.6%
Neu (6 h): 23.4%
PT (6 h): 16.5 s
Plat (6 h): 123.7 x10_4/uL
RBC (6 h): 650.4 x10_4/ul
Ret (6 h): 7.5%
WBC (6 h): 56.6 x10_2/uL
KIDNEY_L (6 h): 0.9 g
KIDNEY_R (6 h): 0.9 g
KIDNEY_TOTAL (6 h): 1.9 g
LIVER (6 h): 9.1 g
A/G (6 h): 1.2
ALP (6 h): 1235.6 IU/L
ALT (6 h): 44.8 IU/L
AST (6 h): 77.8 IU/L
BUN (6 h): 9.8 mg/dL
CRE (6 h): 0.2 mg/dL
Ca (6 h): 10.7 mg/dL
Cl (6 h): 106.4 meq/L
DBIL (6 h): 0.018 mg/dL
GLC (6 h): 184.8 mg/dL
IP (6 h): 9.4 mg/dL
K (6 h): 4.4 meq/L
LDH (6 h): 237.2 IU/L
Na (6 h): 141 meq/L
PL (6 h): 130.2 mg/dL
RALB (6 h): 3.1 g/dL
TBIL (6 h): 0.016 mg/dL
TC (6 h): 76 mg/dL
TG (6 h): 42 mg/dL
TP (6 h): 5.7 g/dL
gamma-GTP (6 h): 1.4 IU/L
TERMINAL_BW (9 h): 208.1 g
APTT (9 h): 24 s
Bas (9 h): 0%
Eos (9 h): 0.6%
Fbg (9 h): 316.4 mg/dL
Hb (9 h): 13.6 g/dL
Ht (9 h): 41.5%
Lym (9 h): 76%
MCH (9 h): 20.4 pg
MCHC (9 h): 32.9%
MCV (9 h): 62.2 fL
Mono (9 h): 2.2%
Neu (9 h): 20.8%
PT (9 h): 16.4 s
Plat (9 h): 129.1 x10_4/uL
RBC (9 h): 667.2 x10_4/ul
Ret (9 h): 7.4%
WBC (9 h): 67.2 x10_2/uL
KIDNEY_L (9 h): 0.9 g
KIDNEY_R (9 h): 0.9 g
KIDNEY_TOTAL (9 h): 1.8 g
LIVER (9 h): 8.4 g
A/G (9 h): 1.2
ALP (9 h): 1643.2 IU/L
ALT (9 h): 39.6 IU/L
AST (9 h): 69.2 IU/L
BUN (9 h): 10 mg/dL
CRE (9 h): 0.2 mg/dL
Ca (9 h): 10.5 mg/dL
Cl (9 h): 106.2 meq/L
DBIL (9 h): 0.026 mg/dL
GLC (9 h): 187 mg/dL
IP (9 h): 9.1 mg/dL
K (9 h): 4.2 meq/L
LDH (9 h): 178.8 IU/L
Na (9 h): 141 meq/L
PL (9 h): 133.6 mg/dL
RALB (9 h): 3.1 g/dL
TBIL (9 h): 0.016 mg/dL
TC (9 h): 75.6 mg/dL
TG (9 h): 43 mg/dL
TP (9 h): 5.6 g/dL
gamma-GTP (9 h): 1 IU/L
TERMINAL_BW (24 h): 209.6 g
APTT (24 h): 22.3 s
Bas (24 h): 0%
Eos (24 h): 0.8%
Fbg (24 h): 311.2 mg/dL
Hb (24 h): 13.7 g/dL
Ht (24 h): 41.5%
Lym (24 h): 77.8%
MCH (24 h): 20.1 pg
MCHC (24 h): 33%
MCV (24 h): 60.8 fL
Mono (24 h): 2.4%
Neu (24 h): 19%
PT (24 h): 16.8 s
Plat (24 h): 138.5 x10_4/uL
RBC (24 h): 684.4 x10_4/ul
Ret (24 h): 6.4%
WBC (24 h): 71.5 x10_2/uL
KIDNEY_L (24 h): 0.9 g
KIDNEY_R (24 h): 0.9 g
KIDNEY_TOTAL (24 h): 1.9 g
LIVER (24 h): 8.6 g
A/G (24 h): 1.3
ALP (24 h): 1472.4 IU/L
ALT (24 h): 40.8 IU/L
AST (24 h): 68 IU/L
BUN (24 h): 14.6 mg/dL
CRE (24 h): 0.2 mg/dL
Ca (24 h): 10.7 mg/dL
Cl (24 h): 107.6 meq/L
DBIL (24 h): 0.018 mg/dL
GLC (24 h): 185.2 mg/dL
IP (24 h): 8.3 mg/dL
K (24 h): 4.2 meq/L
LDH (24 h): 190 IU/L
Na (24 h): 142.4 meq/L
PL (24 h): 139 mg/dL
RALB (24 h): 3.1 g/dL
TBIL (24 h): 0.018 mg/dL
TC (24 h): 79.4 mg/dL
TG (24 h): 43.4 mg/dL
TP (24 h): 5.6 g/dL
gamma-GTP (24 h): 1 IU/L
